In PMC5218480 (PLoS ONE, 2017):

Tested on: MV-4-11 cells
Experiment: Gene expression microarray analysis (Affymetrix PrimeView) and GSEA
Type: cell-based, human
Parameters: RFU PODN (11730768_x_at) / Fold change /veh PODN (11730768_x_at) / RFU LINC00158 (11744669_a_at) / Fold change /veh LINC00158 (11744669_a_at) / RFU DUSP10 (11751237_a_at) / Fold change /veh DUSP10 (11751237_a_at) / RFU ID3 (11757404_x_at) / Fold change /veh ID3 (11757404_x_at) / RFU PLEKHG5 (11737974_s_at) / Fold change /veh PLEKHG5 (11737974_s_at) / RFU LRRC4B (11730491_at) / Fold change /veh LRRC4B (11730491_at) / RFU GIMAP4 (11747438_a_at) / Fold change /veh GIMAP4 (11747438_a_at) / RFU KRT8 (11758183_x_at) / Fold change /veh KRT8 (11758183_x_at) / RFU CNN1 (11734310_a_at) / Fold change /veh CNN1 (11734310_a_at) / RFU VPS37D (11726825_at) / Fold change /veh VPS37D (11726825_at) / RFU C10orf10 (11716522_x_at) / Fold change /veh C10orf10 (11716522_x_at) / RFU KIR2DL2 /// KIR2DL4 /// KIR2DL5A /// KIR2DL5B /// KIR2DS1 /// KIR2DS2 /// KIR2DS3 /// KIR2DS4 /// KIR3DL3 /// KIR3DL3 /// KIR3DS1 (11738374_at) / Fold change /veh KIR2DL2 /// KIR2DL4 /// KIR2DL5A /// KIR2DL5B /// KIR2DS1 /// KIR2DS2 /// KIR2DS3 /// KIR2DS4 /// KIR3DL3 /// KIR3DL3 /// KIR3DS1 (11738374_at) / RFU C1QL1 (11718748_at) / Fold change /veh C1QL1 (11718748_at) / RFU TMPRSS4 (11747572_a_at) / Fold change /veh TMPRSS4 (11747572_a_at) / RFU HAMP (11756126_x_at) / Fold change /veh HAMP (11756126_x_at) / RFU RNFT2 (11725882_a_at) / Fold change /veh RNFT2 (11725882_a_at) / RFU NR4A2 (11747474_a_at) / Fold change /veh NR4A2 (11747474_a_at) / RFU ABCC12 (11746883_a_at) / Fold change /veh ABCC12 (11746883_a_at) / RFU TMEM136 (11760407_x_at) / Fold change /veh TMEM136 (11760407_x_at) / RFU CLDN22 /// WWC2 (11732394_at) / Fold change /veh CLDN22 /// WWC2 (11732394_at) / RFU HLA-DPB1 (11760878_x_at) / Fold change /veh HLA-DPB1 (11760878_x_at) / RFU SPINT1 (11716480_a_at) / Fold change /veh SPINT1 (11716480_a_at) / RFU GAP43 (11754022_s_at) / Fold change /veh GAP43 (11754022_s_at) / RFU A4GNT (11735810_at) / Fold change /veh A4GNT (11735810_at) / RFU PRB3 (11715151_x_at) / Fold change /veh PRB3 (11715151_x_at) / RFU TUBB4B (11761932_at) / Fold change /veh TUBB4B (11761932_at) / RFU CAPN14 (11732068_a_at) / Fold change /veh CAPN14 (11732068_a_at) / RFU TMCC2 (11721928_a_at) / Fold change /veh TMCC2 (11721928_a_at) / RFU IRGQ (11745062_a_at) / Fold change /veh IRGQ (11745062_a_at) / RFU FAM174B (11720279_a_at) / Fold change /veh FAM174B (11720279_a_at) / RFU TMPRSS4 (11748680_a_at) / Fold change /veh TMPRSS4 (11748680_a_at) / RFU FAM212B (11763350_a_at) / Fold change /veh FAM212B (11763350_a_at) / RFU PLEKHG5 (11743358_a_at) / Fold change /veh PLEKHG5 (11743358_a_at) / RFU ZSCAN30 (11745921_a_at) / Fold change /veh ZSCAN30 (11745921_a_at) / RFU CMKLR1 (11741424_a_at) / Fold change /veh CMKLR1 (11741424_a_at) / RFU LOC101060620 /// MAPK8IP1 (11723275_at) / Fold change /veh LOC101060620 /// MAPK8IP1 (11723275_at) / RFU SPTSSB (11747773_x_at) / Fold change /veh SPTSSB (11747773_x_at) / RFU PRSS12 (11739890_at) / Fold change /veh PRSS12 (11739890_at) / RFU BIN1 (11741810_x_at) / Fold change /veh BIN1 (11741810_x_at) / RFU WNT11 (11732464_a_at) / Fold change /veh WNT11 (11732464_a_at) / RFU C10orf10 (11716521_a_at) / Fold change /veh C10orf10 (11716521_a_at) / RFU C5orf56 (11738089_at) / Fold change /veh C5orf56 (11738089_at) / RFU CYB561 (11721691_x_at) / Fold change /veh CYB561 (11721691_x_at) / RFU ANKRD19P (11752326_a_at) / Fold change /veh ANKRD19P (11752326_a_at) / RFU OR2T12 /// OR2T33 /// OR2T8 (11738714_s_at) / Fold change /veh OR2T12 /// OR2T33 /// OR2T8 (11738714_s_at) / RFU VCAN (11748164_a_at) / Fold change /veh VCAN (11748164_a_at) / RFU JSRP1 (11732532_at) / Fold change /veh JSRP1 (11732532_at) / RFU KRTAP10-11 (11738290_x_at) / Fold change /veh KRTAP10-11 (11738290_x_at) / RFU MYO3A (11730013_a_at) / Fold change /veh MYO3A (11730013_a_at) / RFU EBF3 (11725865_a_at) / Fold change /veh EBF3 (11725865_a_at) / RFU CAMK2N1 (11719241_x_at) / Fold change /veh CAMK2N1 (11719241_x_at) / RFU C5orf56 (11738088_a_at) / Fold change /veh C5orf56 (11738088_a_at) / RFU OLFML3 (11715873_a_at) / Fold change /veh OLFML3 (11715873_a_at) / RFU LOC100653217 /// NTM (11731650_a_at) / Fold change /veh LOC100653217 /// NTM (11731650_a_at) / RFU MAPK11 (11762145_a_at) / Fold change /veh MAPK11 (11762145_a_at) / RFU FIZ1 (11724087_x_at) / Fold change /veh FIZ1 (11724087_x_at) / RFU OASL (11726364_x_at) / Fold change /veh OASL (11726364_x_at) / RFU SOX15 (11748057_x_at) / Fold change /veh SOX15 (11748057_x_at) / RFU CD79A (11719716_a_at) / Fold change /veh CD79A (11719716_a_at) / RFU HIST1H1D (11736915_at) / Fold change /veh HIST1H1D (11736915_at) / RFU CASKIN2 (11723855_a_at) / Fold change /veh CASKIN2 (11723855_a_at) / RFU LOC730098 (11760151_x_at) / Fold change /veh LOC730098 (11760151_x_at) / RFU OR4N2 (11742367_at) / Fold change /veh OR4N2 (11742367_at) / RFU PRRT2 (11749266_a_at) / Fold change /veh PRRT2 (11749266_a_at) / RFU SNX32 (11753110_a_at) / Fold change /veh SNX32 (11753110_a_at) / RFU CDHR5 (11726645_a_at) / Fold change /veh CDHR5 (11726645_a_at) / RFU RCAN1 (11760418_a_at) / Fold change /veh RCAN1 (11760418_a_at) / RFU FAM167A (11723789_a_at) / Fold change /veh FAM167A (11723789_a_at) / RFU FAM26E (11764081_at) / Fold change /veh FAM26E (11764081_at) / RFU ISYNA1 (11749810_s_at) / Fold change /veh ISYNA1 (11749810_s_at) / RFU ACY1 (11761880_at) / Fold change /veh ACY1 (11761880_at) / RFU 11764098_at / Fold change /veh 11764098_at / RFU SAMD14 (11745864_x_at) / Fold change /veh SAMD14 (11745864_x_at) / RFU NPB (11741838_a_at) / Fold change /veh NPB (11741838_a_at) / RFU TMPRSS6 (11731388_a_at) / Fold change /veh TMPRSS6 (11731388_a_at) / RFU KRTAP10-2 (11738614_at) / Fold change /veh KRTAP10-2 (11738614_at) / RFU ARHGAP8 /// PRR5-ARHGAP8 (11727945_x_at) / Fold change /veh ARHGAP8 /// PRR5-ARHGAP8 (11727945_x_at) / RFU KRTAP5-7 /// NADSYN1 (11734609_at) / Fold change /veh KRTAP5-7 /// NADSYN1 (11734609_at) / RFU RASL12 (11751679_a_at) / Fold change /veh RASL12 (11751679_a_at) / RFU CDKN2B (11736163_a_at) / Fold change /veh CDKN2B (11736163_a_at) / RFU PRF1 (11729649_at) / Fold change /veh PRF1 (11729649_at) / RFU, ZNF638 /// ZNF638-IT1 / Fold change vs veh, ZNF638 /// ZNF638-IT1 / RFU, PANK3 / Fold change vs veh, PANK3 / RFU, SH3YL1 / Fold change vs veh, SH3YL1 / RFU, ZEB2 / Fold change vs veh, ZEB2 / RFU, NRIP1 / Fold change vs veh, NRIP1 / RFU, PTTG1IP / Fold change vs veh, PTTG1IP / RFU, CAPN2 / Fold change vs veh, CAPN2 / RFU, MED14 / Fold change vs veh, MED14 / RFU, SNORA58 / Fold change vs veh, SNORA58 / RFU, C1orf63 / Fold change vs veh, C1orf63 / RFU, LRRFIP1 / Fold change vs veh, LRRFIP1 / RFU, NDUFAF7 / Fold change vs veh, NDUFAF7 / RFU, SLC12A2 / Fold change vs veh, SLC12A2 / RFU, IBTK / Fold change vs veh, IBTK / RFU, ESF1 / Fold change vs veh, ESF1 / Fold change vs veh, TMEM50B / RFU, TAOK1 / Fold change vs veh, TAOK1 / RFU, ACBD3 / Fold change vs veh, ACBD3 / RFU, TMA16 / Fold change vs veh, TMA16 / RFU, RWDD3 / Fold change vs veh, RWDD3 / RFU, BCAT1 / Fold change vs veh, BCAT1 / RFU, EDEM3 / Fold change vs veh, EDEM3 / RFU, TMEM33 / Fold change vs veh, TMEM33 / RFU, WDR75 / Fold change vs veh, WDR75 / RFU, AHCTF1 / Fold change vs veh, AHCTF1 / RFU, TFRC / Fold change vs veh, TFRC / RFU, ZDHHC17 / Fold change vs veh, ZDHHC17 / RFU, NOM1 / Fold change vs veh, NOM1 / RFU, ARL8B / Fold change vs veh, ARL8B / RFU, ZBTB11 / Fold change vs veh, ZBTB11 / RFU, TAMM41 / Fold change vs veh, TAMM41 / RFU, KIAA1704 /// LOC100996395 / Fold change vs veh, KIAA1704 /// LOC100996395 / RFU, ING1 / Fold change vs veh, ING1 / RFU, TRMT61B / Fold change vs veh, TRMT61B / RFU, FUBP3 / Fold change vs veh, FUBP3 / RFU, TP53 / Fold change vs veh, TP53 / RFU, TNKS2 / Fold change vs veh, TNKS2 / RFU, ZFP14 / Fold change vs veh, ZFP14 / RFU, ACTR2 / Fold change vs veh, ACTR2 / RFU, PPP3R1 / Fold change vs veh, PPP3R1 / RFU, PIK3R1 / Fold change vs veh, PIK3R1 / RFU, HNRNPA1 / Fold change vs veh, HNRNPA1 / RFU, RNF170 / Fold change vs veh, RNF170 / RFU, ZNF28 / Fold change vs veh, ZNF28 / RFU, RNGTT / Fold change vs veh, RNGTT / RFU, OGT / Fold change vs veh, OGT / RFU, BRD1 / Fold change vs veh, BRD1 / RFU, MARS / Fold change vs veh, MARS / RFU, ZNF655 / Fold change vs veh, ZNF655 / RFU, FAHD1 / Fold change vs veh, FAHD1 / RFU, BDP1 / Fold change vs veh, BDP1 / RFU, LRRCC1 / Fold change vs veh, LRRCC1 / RFU, ARID1A / Fold change vs veh, ARID1A / RFU, ZNF146 / Fold change vs veh, ZNF146 / RFU, ZNF330 / Fold change vs veh, ZNF330 / RFU, GPN3 / Fold change vs veh, GPN3 / RFU, C9orf123 / Fold change vs veh, C9orf123 / RFU, N4BP2L2 / Fold change vs veh, N4BP2L2 / RFU, ARFIP1 / Fold change vs veh, ARFIP1 / RFU, FAM179B / Fold change vs veh, FAM179B / RFU, BCL10 / Fold change vs veh, BCL10 / RFU, UHRF1BP1L / Fold change vs veh, UHRF1BP1L / RFU, BET1 / Fold change vs veh, BET1 / RFU, CNOT2 / Fold change vs veh, CNOT2 / RFU, ZNF268 / Fold change vs veh, ZNF268 / Fold change vs veh, ZNF507 / RFU, DGCR2 / Fold change vs veh, DGCR2 / RFU, WDSUB1 / Fold change vs veh, WDSUB1 / Fold change vs veh, HSP90B1 /// MIR3652 / RFU, ADSS / Fold change vs veh, ADSS / RFU, GK / Fold change vs veh, GK / RFU, ZNF148 / Fold change vs veh, ZNF148 / RFU, TAF9 / Fold change vs veh, TAF9 / RFU, SLC1A5 / Fold change vs veh, SLC1A5 / RFU, SLMO2 / Fold change vs veh, SLMO2 / RFU, ABCC4 / Fold change vs veh, ABCC4 / RFU, LOC101060439 /// RAP1B / Fold change vs veh, LOC101060439 /// RAP1B / RFU, RFX7 / Fold change vs veh, RFX7 / RFU, GTPBP10 / Fold change vs veh, GTPBP10 / RFU, CNEP1R1 / Fold change vs veh, CNEP1R1 / RFU, BIVM-ERCC5 /// ERCC5 / Fold change vs veh, BIVM-ERCC5 /// ERCC5 / RFU, ILF3 / Fold change vs veh, ILF3 / RFU 11762660_at / Fold change /veh 11762660_at / RFU VCAN (11757783_s_at) / Fold change /veh VCAN (11757783_s_at) / RFU DDX43 (11728927_at) / Fold change /veh DDX43 (11728927_at) / RFU KRT8 (11758188_x_at) / Fold change /veh KRT8 (11758188_x_at) / RFU NKD1 (11759106_at) / Fold change /veh NKD1 (11759106_at) / RFU SRD5A1 (11742802_a_at) / Fold change /veh SRD5A1 (11742802_a_at) / RFU TPSAB1 /// TPSB2 (11721975_s_at) / Fold change /veh TPSAB1 /// TPSB2 (11721975_s_at) / RFU GSTM3 (11746129_a_at) / Fold change /veh GSTM3 (11746129_a_at) / RFU IL23R (11737362_x_at) / Fold change /veh IL23R (11737362_x_at) / RFU TMEM51 (11727254_a_at) / Fold change /veh TMEM51 (11727254_a_at) / RFU PIWIL2 (11732686_x_at) / Fold change /veh PIWIL2 (11732686_x_at) / RFU ORM1 (11744905_x_at) / Fold change /veh ORM1 (11744905_x_at) / RFU CCDC152 (11743942_at) / Fold change /veh CCDC152 (11743942_at) / RFU ECM1 (11717891_a_at) / Fold change /veh ECM1 (11717891_a_at) / RFU IL23R (11748794_a_at) / Fold change /veh IL23R (11748794_a_at) / RFU TNFAIP8L3 (11732012_x_at) / Fold change /veh TNFAIP8L3 (11732012_x_at) / RFU MBOAT4 (11741988_at) / Fold change /veh MBOAT4 (11741988_at) / RFU 11764193_at / Fold change /veh 11764193_at / RFU TMEM53 (11763286_at) / Fold change /veh TMEM53 (11763286_at) / RFU MAGEB2 (11727129_at) / Fold change /veh MAGEB2 (11727129_at) / RFU TMEM200A (11744735_a_at) / Fold change /veh TMEM200A (11744735_a_at) / RFU CCDC152 (11751479_a_at) / Fold change /veh CCDC152 (11751479_a_at) / RFU FAM211A (11726209_a_at) / Fold change /veh FAM211A (11726209_a_at) / RFU RGS16 (11746705_a_at) / Fold change /veh RGS16 (11746705_a_at) / RFU VCAN (11755009_s_at) / Fold change /veh VCAN (11755009_s_at) / RFU RHOB (11743442_s_at) / Fold change /veh RHOB (11743442_s_at) / RFU RGS16 (11720943_a_at) / Fold change /veh RGS16 (11720943_a_at) / RFU RGS16 (11720944_at) / Fold change /veh RGS16 (11720944_at) / RFU, VPS4B / Fold change vs veh, VPS4B / RFU, CREB1 / Fold change vs veh, CREB1 / RFU, DNAJC13 / Fold change vs veh, DNAJC13 / RFU, GNAQ / Fold change vs veh, GNAQ / RFU, CDK5R1 / Fold change vs veh, CDK5R1 / RFU, ZRANB3 / Fold change vs veh, ZRANB3 / RFU, CUL4A / Fold change vs veh, CUL4A / RFU, CCNY / Fold change vs veh, CCNY / RFU, UFL1 / Fold change vs veh, UFL1 / RFU, COG3 / Fold change vs veh, COG3 / RFU, DIAPH2 / Fold change vs veh, DIAPH2 / RFU, SKA2 / Fold change vs veh, SKA2 / RFU, AFF3 / Fold change vs veh, AFF3 / RFU, LMF1 / Fold change vs veh, LMF1 / RFU, IPO11 / Fold change vs veh, IPO11 / RFU, DFFB / Fold change vs veh, DFFB / RFU, FOXP1 / Fold change vs veh, FOXP1 / RFU, CARD8 / Fold change vs veh, CARD8 / RFU, STRN3 / Fold change vs veh, STRN3 / RFU, ADK / Fold change vs veh, ADK / RFU, RASSF2 / Fold change vs veh, RASSF2 / RFU, WIPF1 / Fold change vs veh, WIPF1 / RFU, LARP1B / Fold change vs veh, LARP1B / RFU, RASA1 / Fold change vs veh, RASA1 / RFU, RB1 / Fold change vs veh, RB1 / RFU, PPFIA1 / Fold change vs veh, PPFIA1 / RFU, MAT2A / Fold change vs veh, MAT2A / RFU, CCT5 / Fold change vs veh, CCT5 / RFU, WDR92 / Fold change vs veh, WDR92 / RFU, CUX1 / Fold change vs veh, CUX1 / RFU, TTC7A / Fold change vs veh, TTC7A / RFU, TMEM135 / Fold change vs veh, TMEM135 / RFU, DEPTOR / Fold change vs veh, DEPTOR / RFU, CPM / Fold change vs veh, CPM / RFU, DNAJB6 / Fold change vs veh, DNAJB6 / RFU, CACNA2D3 / Fold change vs veh, CACNA2D3 / RFU, DTX4 / Fold change vs veh, DTX4 / RFU, TFCP2 / Fold change vs veh, TFCP2 / RFU, GMCL1 /// GMCL1P1 / Fold change vs veh, GMCL1 /// GMCL1P1 / RFU, AEBP2 / Fold change vs veh, AEBP2 / RFU, SNHG1 /// SNORD22 /// SNORD25 /// SNORD26 /// SNORD27 /// SNORD28 /// SNORD29 /// SNORD31 / Fold change vs veh, SNHG1 /// SNORD22 /// SNORD25 /// SNORD26 /// SNORD27 /// SNORD28 /// SNORD29 /// SNORD31 / Fold change (Aza/veh), C12orf56 (ProbeSet 11735607_a_at) / Fold change (ACY-1035/veh), C12orf56 (ProbeSet 11735607_a_at) / Fold change (Aza/veh), FGFR1OP (ProbeSet 11751329_s_at) / Fold change (ACY-1035/veh), FGFR1OP (ProbeSet 11751329_s_at) / Fold change (Aza/veh), VPS36 (ProbeSet 11739960_a_at) / Fold change (ACY-1035/veh), VPS36 (ProbeSet 11739960_a_at) / RFU SYPL1 (11715823_x_at) / Fold change /veh SYPL1 (11715823_x_at) / RFU IGFBP7 (11715501_s_at) / Fold change /veh IGFBP7 (11715501_s_at) / RFU REEP3 (11722064_at) / Fold change /veh REEP3 (11722064_at) / RFU IGLL1 (11728026_x_at) / Fold change /veh IGLL1 (11728026_x_at): dose or concentration left out as unconfirmed
Details: ProbeSet 11725100_s_at; LIST B

For Nc1ncn([C@@H]2O[C@H](CO)[C@@H](O)[C@H]2O)c(=O)n1 [azacitidine], the “Fold change vs veh, ESF1” value was 0.96.
